In brackets after ≈: the same amount, converted by molar mass. Read-outs that look alike come from different tables or passages of the source.
Legend:
[1] = test system: S. aureus ATCC 13709 (methicillin sensitive strain, MSSA); assay: MIC, NCCLS broth microdilution; format: cell-based, Staphylococcus aureus; conditions: for MIC: Staphylococcus aureus, read-out: Minimum Inhibitory Concentration (MIC)
Excerpt: (§1) In vitro biological activity data were collected for a variety of microorganisms, including Bacillus cereus (ATCC 11778), Staphylococcus aureus (ATCC 27660 (a methicillin resistant strain (MRSA), ATCC 33591 and ATCC 43300); ATCC 13709, a methicillin sensitive strain (MSSA)); Streptococcus pneumoniae (ATCC 51422, a penicillin resistant strain (PRSP)), Enterococcus faecium (ATCC 51559, a vancomycin resistant strain (VRE)), and Staphylococcus epidermidis (ATCC 700586, a methycillin resistant strain (MRSE)). Additionally, antifungal activity data were collected for Candida albicans (ATCC 38247). Minimal inhibition concentrations (MIC's) were determined using the National Committee for Clinical Laboratory Standards (NCCLS) broth microdilution assay in microtiter plates, as set forth in: (1) the guidelines of the National Committee for Clinical Laboratory Standards (NCCLS) Document M7-A4 (NCCLS, 1997); (2) the guidelines of the National Committee for Clinical Laboratory Standards (NCCLS) Document M11-A4 (NCCLS, 1997); and (3) the guidelines and reference method of the National Committee for Clinical Laboratory Standards (NCCLS) Document M27-T (NCCLS, 1995). For antifungal essays, the method recommended in Murray, PR., 1995 Manual of Clinical Microbiology (ASM Press, Washington, D.C.), was employed.

[2] = test system: S. aureus ATCC 27660 (methicillin resistant strain, MRSA); assay: MIC, NCCLS broth microdilution; format: cell-based, Staphylococcus aureus; conditions: for MIC: Staphylococcus aureus, read-out: Minimum Inhibitory Concentration (MIC)
Excerpt: as §1

S. aureus ATCC 33591 = assay: MIC, NCCLS broth microdilution; format: cell-based, Staphylococcus aureus; conditions: for MIC: Staphylococcus aureus
Excerpt: as §1

[3] = test system: E. faecium ATCC 51559 (vancomycin resistant strain, VRE); assay: MIC, NCCLS broth microdilution; format: cell-based, Enterococcus faecium; conditions: for MIC: Enterococcus faecium, read-out: Minimum Inhibitory Concentration (MIC)
Excerpt: as §1

B. Cereus ATCC 11778 = assay: MIC, NCCLS broth microdilution; format: cell-based, Bacillus cereus; conditions: for MIC: Bacillus cereus
Excerpt: as §1

[4] = test system: S. pneumoniae ATCC 51422 (penicillin resistant strain, PRSP); assay: MIC, NCCLS broth microdilution; format: cell-based, Streptococcus pneumoniae; conditions: for MIC: Streptococcus pneumoniae, read-out: Minimum Inhibitory Concentration (MIC)
Excerpt: as §1

[5] = test system: Candida albicans (ATCC 38247); assay: Antifungal MIC; format: cell-based
Excerpt: as §1, with “employed. The results are presented in Table A below, which is keyed as follows: […]” for “employed.”

[6] = test system: methycillin resistant Staphylococcus aureus ATCC 33591; assay: Murine neutropenic thigh model; format: in vivo, mice; conditions: 50 mg/kg intravenously two hours post infection, 6 hr after treatment
Method: A S. aureus ATCC 33591 culture was grown to log phase overnight and diluted in phosphate buffered saline (pH 7.2) to an optical density of about 0.1 at 600 nm, giving an approximate concentration of 10^8 cfu/mL. The suspension was diluted 1:100 in phosphate buffered saline (pH 7.2) for a final concentration of 10^6 cfu/mL.
Outbred female CF1 mice (approx. 20 gram body weight) were rendered neutropenic by treatment with cyclophosphamide (200 mg/kg body weight, intraperitoneal injection) at 2 and 4 days prior to inoculation. Groups of 5 mice were inoculated with 0.05 mL of the bacteria (approx. 10^6 cfu/mL) into the anterior thigh. Each group was treated intravenously two hours post infection with vehicle (phosphate buffered saline) or test compound. The mice were sacrificed at either 6 or 24 hrs after treatment and thighs were collected aseptically. Each thigh was weighed, placed into sterile saline, and homogenized. The tissue homogenates were diluted appropriately for plating on agar plates. Colony counts were recorded (cfu/gram) and compared to control groups.
In vivo efficacy was shown by a decrease in colony count (log cfu/gram of tissue) in the compound-treated animals when compared against the colony count in animals given only the vehicle.

[7] = test system: S. epidermidis ATCC 700586 (methycillin resistant strain, MRSE); assay: MIC, NCCLS broth microdilution; format: cell-based, Staphylococcus epidermidis; conditions: for MIC: Staphylococcus epidermidis, read-out: Minimum Inhibitory Concentration (MIC)
Excerpt: as §1

S. aureus ATCC 43300 = assay: MIC, NCCLS broth microdilution; format: cell-based; conditions: Staphylococcus aureus, ATCC43300, read-out: Minimum Inhibitory Concentration (MIC)
Excerpt: as §1

Minimum Inhibitory Concentration (MIC) ([1]; C = S. aureus ATCC 13709)	Minimum Inhibitory Concentration (MIC) ([2]; D = S. aureus ATCC 27660)	Minimum Inhibitory Concentration (MIC) (B. Cereus ATCC 11778; A = B. Cereus ATCC 11778)	Minimum Inhibitory Concentration (MIC) (S. aureus ATCC 33591; E = S. aureus ATCC 33591)	Minimum Inhibitory Concentration (MIC) ([3]; B = E. faecium ATCC 51559)	Minimum Inhibitory Concentration (MIC) ([4]; H = S. pneumoniae ATCC 51422)	Minimum Inhibitory Concentration (MIC) ([7]; G = S. epidermidis ATCC 700586)	Compound	other results
+++ (+++ = MIC ≦ 4)	+++ (+++ = MIC ≦ 4)	+++ (+++ = MIC ≦ 4)					Cn1cc(NC(=O)c2cc(NC(=O)c3cc(NC(=O)c4cc5ccccc5cn4)c[nH]3)cn2C)cc1C(=O)NCCN1CCOCC1 [Ib-50]	MIC [5]: ++ (++ = MIC between 4 and 12); Colony Count (log cfu/gram) Compound [6]: 7.97 log cfu/gram
+++ (+++ = MIC ≦ 4)	+++ (+++ = MIC ≦ 4)	+++ (+++ = MIC ≦ 4)	+++ (+++ = MIC ≦ 4)	+++ (+++ = MIC ≦ 4)	+++ (+++ = MIC ≦ 4)	+++ (+++ = MIC ≦ 4)	Cn1cc(NC(=O)c2cc(NC(=O)c3cc(NC(=O)c4cc5ccccc5cn4)c[nH]3)cn2C)cc1C(=O)NCCc1ccccn1 [Ib-70]	
+++ (+++ = MIC ≦ 4)	+++ (+++ = MIC ≦ 4)	+ (+ = MIC from 12 to 32, inclusive)	+++ (+++ = MIC ≦ 4)	+++ (+++ = MIC ≦ 4)	+++ (+++ = MIC ≦ 4)	+++ (+++ = MIC ≦ 4)	Cn1cc(NC(=O)c2cc(NC(=O)c3cc(NC(=O)c4cc5ccccc5cn4)c[nH]3)cn2C)cc1C(=O)NCCN1CCCCC1 [Ib-62]	

Further lines, the molecule ahead of its results:

Compound	Minimum Inhibitory Concentration (MIC) ([1]; C = S. aureus ATCC 13709)	Minimum Inhibitory Concentration (MIC) ([2]; D = S. aureus ATCC 27660)	Minimum Inhibitory Concentration (MIC) (B. Cereus ATCC 11778; A = B. Cereus ATCC 11778)	Minimum Inhibitory Concentration (MIC) (S. aureus ATCC 33591; E = S. aureus ATCC 33591)	Minimum Inhibitory Concentration (MIC) ([3]; B = E. faecium ATCC 51559)	Minimum Inhibitory Concentration (MIC) ([4]; H = S. pneumoniae ATCC 51422)	Minimum Inhibitory Concentration (MIC) ([7]; G = S. epidermidis ATCC 700586)	other results
Cn1cc(NC(=O)c2cc(NC(=O)c3cc(NC(=O)c4sc5ccccc5c4Cl)c[nH]3)cn2C)cc1C(=O)NCCN1CCCC1 [Ib-48]								MIC ([1]; C = S. aureus ATCC 13709): < 4 µg/mL; MIC ([2]; D = S. aureus ATCC 27660): < 4 µg/mL; MIC (S. aureus ATCC 33591; ATCC33591, E = S. aureus ATCC 33591, read-out: Minimum Inhibitory Concentration (MIC)): < 4 µg/mL; MIC ([3]; B = E. faecium ATCC 51559): 4 to 12 µg/mL (≈ 6.05 to 18.1 µM); MIC (B. Cereus ATCC 11778; ATCC11778, A = B. Cereus ATCC 11778, read-out: Minimum Inhibitory Concentration (MIC)): < 4 µg/mL; MIC ([4]; H = S. pneumoniae ATCC 51422): < 4 µg/mL; MIC ([5]; ATCC38247, read-out: MIC): < 4 µg/mL; Colony Count (log cfu/gram) Compound [6]: 4.74 log cfu/gram; MIC ([7]; G = S. epidermidis ATCC 700586): < 4 µg/mL
Cn1cc(NC(=O)c2cc(NC(=O)c3cc(NC(=O)c4sc5ccccc5c4Cl)cn3C)cn2C)cc1C(=O)NCCN1CCOCC1 [Ib-1]								MIC [1]: < 4 µg/mL; MIC [2]: < 4 µg/mL; MIC (S. aureus ATCC 33591; ATCC33591, read-out: Minimum Inhibitory Concentration (MIC)): < 4 µg/mL; MIC (S. aureus ATCC 43300): < 4 µg/mL; MIC [3]: < 4 µg/mL; MIC (B. Cereus ATCC 11778; ATCC11778, read-out: Minimum Inhibitory Concentration (MIC)): < 4 µg/mL; MIC [4]: < 4 µg/mL; MIC [7]: < 4 µg/mL
Cn1cc(NC(=O)c2cc3ccccc3cn2)cc1C(=O)Nc1cc(C(=O)Nc2cc(C(=O)NCCN3CCOCC3)n(CCN3CCOCC3)c2)n(C)c1 [Ib-56]	+++ (+++ = MIC ≦ 4)	+++ (+++ = MIC ≦ 4)	>32 µg/mL	+++ (+++ = MIC ≦ 4)	+++ (+++ = MIC ≦ 4)	+++ (+++ = MIC ≦ 4)	+++ (+++ = MIC ≦ 4)	
Cc1cc(NC(=O)c2cc(NC(=O)c3nc(NC(=O)c4cc5ccccc5cn4)cn3C)cn2CCN2CCOCC2)sn1 [Ib-77]	+++ (+++ = MIC ≦ 4)	+++ (+++ = MIC ≦ 4)	+++ (+++ = MIC ≦ 4)	+++ (+++ = MIC ≦ 4)	+++ (+++ = MIC ≦ 4)	+++ (+++ = MIC ≦ 4)	+++ (+++ = MIC ≦ 4)	
Cn1cc(NC(=O)c2cc(NC(=O)c3cc4ccccc4cn3)no2)cc1C(=O)OCCN1CCOCC1 [Ib-61]	+++ (+++ = MIC ≦ 4)	+++ (+++ = MIC ≦ 4)	+++ (+++ = MIC ≦ 4)	+++ (+++ = MIC ≦ 4)	+++ (+++ = MIC ≦ 4)	+++ (+++ = MIC ≦ 4)	+++ (+++ = MIC ≦ 4)	
Cn1cc(NC(=O)c2cc(NC(=O)c3cc(NC(=O)c4sc5cc6c(cc5c4Cl)OCO6)cn3C)cn2C)cc1C(=O)NCCN1CCOCC1 [Ib-20d]	+++ (+++ = MIC ≦ 4)	+++ (+++ = MIC ≦ 4)	+++ (+++ = MIC ≦ 4)	+++ (+++ = MIC ≦ 4)	+++ (+++ = MIC ≦ 4)	+++ (+++ = MIC ≦ 4)	+++ (+++ = MIC ≦ 4)	
Cn1cc(NC(=O)c2sc3cc4c(cc3c2Cl)OCO4)cc1C(=O)NCCN1CCCC1 [Ib-20o]	+++ (+++ = MIC ≦ 4)	+++ (+++ = MIC ≦ 4)	+++ (+++ = MIC ≦ 4)	+++ (+++ = MIC ≦ 4)	+++ (+++ = MIC ≦ 4)	+++ (+++ = MIC ≦ 4)	+++ (+++ = MIC ≦ 4)	

Source: patent publication US20040142971A1, “BENZOTHIOPHENE COMPOUNDS HAVING ANTIINFECTIVE ACTIVITY” (GeneSoft, Inc., priority 2001, published 2004)
